From patent US8012987B2, “Indolo[2,1-b] quinazole-6,12-dione antimalarial compounds and methods of treating malaria therewith” (The United States of America as represented by the …, priority 1998, dated 2011) come the findings set out here.

Holding throughout (type): cell-based
For assay [1], the system named is Plasmodium falciparum clone CDC Indochina III (W-2). The assay can be described thus: In vitro inhibition of [3H]hypoxanthine uptake, P. falciparum W-2 clone. Conditions: for IC50: Plasmodium falciparum, read-out: IC50 (W-2). The protocol:
(§1) The in vitro assays were conducted by using a modification of the semiautomated microdilution technique of Desjardins et al.^11 and Chulay et al.^12 Two strains of Plasmodium falciparum clones, from CDC Indochina III (W-2), CDC Sierra Leone I (D-6). […] These solutions were subsequently serially diluted 2-fold with a Biomek 1000® (Beckman, Fullerton, Calif.) over 11 different concentrations. The parasites were exposed to serial dilutions of each compound for 48 h and incubated at 37° C. with 5% O2, 5% CO2, and 90% N2 prior to the addition of [^3H]hypoxanthine. […] Uptake of [^3H]hypoxanthine was measured with a Packard Topcount scintillation counter. […] The values without parentheses indicate culture in blood serum which more closely resemble conditions in a living animal.
(§2) The numbers associated with both W2 and D6 refer to IC50 values and the units are ng/ml.

The test system of assay [2] is Plasmodium falciparum clone Thai WR75-TM9. The assay can be described thus: In vitro inhibition of [3H]hypoxanthine uptake, P. falciparum WR75-TM9. Conditions: values without parentheses: blood serum (footnote: blood plasma) replacing Albumax; for IC50: Plasmodium falciparum. Here is the method:
(§3) The in vitro assays were conducted by using a modification of the semiautomated microdilution technique of Desjardins et al.^11 and Chulay et al.^12 Two strains of Plasmodium falciparum clones, from CDC Indochina III (W-2), CDC Sierra Leone I (D-6). […] They were derived by direct visualization and micromanipulation from patient isolates.^13 Test compounds were initially dissolved in DMSO and diluted 400-fold in RPMI 1640 culture medium supplemented with 25 mM Hepes, 32 mM HaHCO3, and 10% Albumax I® (GIBCO BRL, Grand Island, N.Y.). These solutions were subsequently serially diluted 2-fold with a Biomek 1000® (Beckman, Fullerton, Calif.) over 11 different concentrations. The parasites were exposed to serial dilutions of each compound for 48 h and incubated at 37° C. with 5% O2, 5% CO2, and 90% N2 prior to the addition of [^3H]hypoxanthine. After a further incubation of 18 h, parasite DNA was harvested from each microtiter well using Packard Filtermate 196 Harvester® (Meriden, Conn.) onto glass filters. Uptake of [^3H]hypoxanthine was measured with a Packard Topcount scintillation counter. […] This procedure was repeated with the test compounds initially dissolved in DMSO and diluted 400-fold in RPMI 1640 culture medium supplemented with 25 mM Hepes, 32 mM HaHCO3, and with blood serum replacing the 10% Albumax I® (see Table 1, figures without parentheses). The values without parentheses indicate culture in blood serum which more closely resemble conditions in a living animal.
(§4) Four strains of Plasmodium falciparum clones, from CDC Indochina III (W-2), CDC Sierra Leone I (D-6), Thai WR75-TM9, and Thai TM90C2B were utilized in susceptibility testing and the IC50 results appear in Table 1.

Assay [3] relates to Plasmodium falciparum clone CDC Sierra Leone I (D-6). Nature of the assay: In vitro inhibition of [3H]hypoxanthine uptake, P. falciparum D-6 clone. Particulars: for IC50: Plasmodium falciparum, read-out: IC50 (D-6). The protocol:
as §1, §2

In assay [4] the test system is Plasmodium falciparum clone Thai TM90C2B. The assay can be described thus: In vitro inhibition of [3H]hypoxanthine uptake, P. falciparum TM90C2B. Particulars: Plasmodium falciparum, TM90C2B, values without parentheses: blood serum (footnote: blood plasma) replacing Albumax. The protocol: as §3, §4
Assay [5] deals with Plasmodium falciparum. Nature of the assay: In vitro antimalarial activity against Plasmodium falciparum (strain not given). Particulars: judged from the IC50 values of Table 1. The protocol: as §3, §4
[6] abbreviates: values in parentheses: culture medium with 10% Albumax I.
Setting [7] is: values without parentheses: blood serum (footnote: blood plasma) replacing Albumax.

The structures appear in SMILES notation. Values after ≈ are worked out from the molar mass of the structure shown. Read-outs that look alike come from different tables or passages of the source.

What is called IC50 is the concentration that inhibits the measured activity by half.

With `CN1CCN(c2ccc3c(=O)n4c(nc3c2)C(=O)c2cc(Cl)ccc2-4)CC1` [Example 58], the 50% inhibitory concentration (IC50) in assay [1] (setting [6]) is 2.73 ng/mL (≈ 0.00717 µM); in assay [2], 17.3 ng/mL (≈ 0.0454 µM); in assay [3] (setting [6]), 4.52 ng/mL (≈ 0.0119 µM); in assay [4], 8.1 ng/mL (≈ 0.0213 µM).
Take `O=C1c2cc(Br)ccc2-n2c1nc1cnccc1c2=O` [Example 59]: the IC50 in assay [1] (setting [6]) stood at 2.47 ng/mL (≈ 0.00753 µM); in assay [1] (setting [7]), 17.7 ng/mL (≈ 0.054 µM); in assay [3] (setting [6]) it was 4.37 ng/mL (≈ 0.0133 µM); in assay [3] (setting [7]) it was 37.9 ng/mL (≈ 0.115 µM); in assay [4], 24 ng/mL (≈ 0.0732 µM).
Turning to `O=C1c2cc(OC(F)(F)F)ccc2-n2c1nc1ccncc1c2=O` [Example 63], the half-maximal inhibitory concentration (IC50) in assay [1] (setting [6]) was determined as 1.5 ng/mL (≈ 0.0045 µM); in assay [1] (setting [7]), 1.23 ng/mL (≈ 0.00369 µM); in assay [2] it was 1.97 ng/mL (≈ 0.0059 µM); in assay [3] (setting [6]), 3.16 ng/mL (≈ 0.00948 µM); in assay [3] (setting [7]), 0.946 ng/mL (≈ 0.00284 µM); in assay [4], 1.16 ng/mL (≈ 0.00349 µM). Moreover, the “effectiveness in treating/reducing malaria parasites as shown in Table 1” value in assay [5] is “most effective”.
`CN(CCO)c1ccc2c(=O)n3c(nc2c1)C(=O)c1cc(F)ccc1-3` [Example 68]: the IC50 in assay [1] (setting [6]) amounted to 3.86 ng/mL (≈ 0.0114 µM); in assay [2] it was 5.47 ng/mL (≈ 0.0161 µM); in assay [3] (setting [6]), 7.86 ng/mL (≈ 0.0232 µM); in assay [4], 3.73 ng/mL (≈ 0.011 µM).
On to `COC(OC)c1ccc2c(c1)C(=O)c1nc3ccncc3c(=O)n1-2` [Example 70], for which the 50% inhibitory concentration (IC50) turned out to be 8.69 ng/mL (≈ 0.0269 µM) in assay [1] (setting [6]); 6.1 ng/mL (≈ 0.0189 µM) in assay [1] (setting [7]); 24.4 ng/mL (≈ 0.0754 µM) in assay [2]; 13.2 ng/mL (≈ 0.0409 µM) in assay [3] (setting [6]); 11 ng/mL (≈ 0.034 µM) in assay [4].
As for `COC(c1ccc2c(c1)C(=O)c1nc3ccncc3c(=O)n1-2)C(C)C` (stereo not drawn) [Example 73], the half-inhibitory concentration (IC50) in assay [1] (setting [6]) amounted to 3.75 ng/mL (≈ 0.0112 µM); in assay [1] (setting [7]) it was 2.85 ng/mL (≈ 0.00851 µM); in assay [2] it was 10.5 ng/mL (≈ 0.0313 µM); in assay [3] (setting [6]), 5.4 ng/mL (≈ 0.0161 µM); in assay [3] (setting [7]), 4.89 ng/mL (≈ 0.0146 µM); in assay [4], 4.46 ng/mL (≈ 0.0133 µM).
`O=C1c2cc(C3CCCCC3)ccc2-n2c1nc1ccncc1c2=O` [Example 74]: the IC50 in assay [1] (setting [6]) came to 3.52 ng/mL (≈ 0.0106 µM); in assay [1] (setting [7]), 59.8 ng/mL (≈ 0.181 µM); in assay [2], 127 ng/mL (≈ 0.384 µM); in assay [3] (setting [6]), 2.19 ng/mL (≈ 0.00661 µM); in assay [3] (setting [7]), 79.6 ng/mL (≈ 0.24 µM); in assay [4], 42.5 ng/mL (≈ 0.128 µM).
With `O=C1c2cc(OC(F)(F)F)ccc2-n2c1nc1cc(F)ccc1c2=O` [Example 78], the IC50 is 0.86 ng/mL (≈ 0.00246 µM) in assay [1] (setting [6]); 0.935 ng/mL (≈ 0.00267 µM) in assay [1] (setting [7]); 3.3 ng/mL (≈ 0.00941 µM) in assay [2]; 0.93 ng/mL (≈ 0.00266 µM) in assay [3] (setting [6]); 1.97 ng/mL (≈ 0.00561 µM) in assay [3] (setting [7]); 1.76 ng/mL (≈ 0.00504 µM) in assay [4]. Besides, in assay [5], the “effectiveness in treating/reducing malaria parasites as shown in Table 1” value is given as “most effective”.
In the case of `CCc1ccc2c(c1)C(=O)c1nc3ccncc3c(=O)n1-2` [Example 83], the concentration for half-maximal inhibition (IC50) in assay [1] (setting [6]) stood at 1.8 ng/mL (≈ 0.00649 µM); in assay [1] (setting [7]) it was 7.19 ng/mL (≈ 0.0259 µM); in assay [2], 25.7 ng/mL (≈ 0.0927 µM); in assay [3] (setting [6]), 3.11 ng/mL (≈ 0.0112 µM); in assay [3] (setting [7]), 15.1 ng/mL (≈ 0.0546 µM); in assay [4], 12.9 ng/mL (≈ 0.0464 µM).
Turning to `O=C1c2cc(Cl)ccc2-n2c1nc1cc(SCCO)ccc1c2=O` [Example 86], the IC50 stood at 2.3 ng/mL (≈ 0.00641 µM) in assay [1] (setting [6]); 1.91 ng/mL (≈ 0.00532 µM) in assay [1] (setting [7]); 3.6 ng/mL (≈ 0.01 µM) in assay [3] (setting [6]); 3.63 ng/mL (≈ 0.0101 µM) in assay [3] (setting [7]); 2.08 ng/mL (≈ 0.00579 µM) in assay [4].
For the compound `O=C1c2cc(OC(F)(F)F)ccc2-n2c1nc1cc(SCCO)ccc1c2=O` [Example 87], the 50% inhibitory concentration (IC50) was found to be 3.51 ng/mL (≈ 0.0086 µM) in assay [1] (setting [6]), 4.44 ng/mL (≈ 0.0109 µM) in assay [2], 4.92 ng/mL (≈ 0.012 µM) in assay [3] (setting [6]) and 0.696 ng/mL (≈ 0.0017 µM) in assay [4].
As for `C=CCO/N=C/c1ccc2c(c1)C(=O)c1nc3ccncc3c(=O)n1-2` [Example 90], the IC50 in assay [1] (setting [6]) was 3.93 ng/mL (≈ 0.0118 µM); in assay [1] (setting [7]) it was 15.6 ng/mL (≈ 0.0469 µM); in assay [2], 30 ng/mL (≈ 0.0904 µM); in assay [3] (setting [6]) it was 7.59 ng/mL (≈ 0.0228 µM); in assay [3] (setting [7]), 16.3 ng/mL (≈ 0.0491 µM); in assay [4] it was 6.14 ng/mL (≈ 0.0185 µM).
Take `O=C1c2cc(F)ccc2-n2c1nc1ccccc1c2=O` [Example 91]: the IC50 turned out to be 1.8 ng/mL (≈ 0.00676 µM) in assay [1] (setting [6]), 5.52 ng/mL (≈ 0.0207 µM) in assay [1] (setting [7]), 0.24 ng/mL (≈ 0.000901 µM) in assay [3] (setting [6]) and 9.06 ng/mL (≈ 0.034 µM) in assay [3] (setting [7]). In assay [1] (setting [7]), the “IC50 (W-2)” value is listed as 4.977 ng/mL (≈ 0.0187 µM). In addition, in assay [2], the “IC50 (WR75-TM9)” value is 9.941 ng/mL (≈ 0.0373 µM). For the same compound, the “IC50 (D-6)” value in assay [3] (setting [7]) is on record as 10.137 ng/mL (≈ 0.0381 µM).
